Source: patent publication US20140296528A1, “4-ARYL-1-(BIARYLMETHYLENE) PIPERIDINE COMPOUNDS” (KING ABDULAZIZ CITY FOR SCIENCE AND TECHNOLOGY, priority 2013, published 2014)

Experiments:
[1] = test system: phencyclidine-induced social interaction deficits; settings: background statement on prior-art compounds; cited from earlier work

melting point [°C]	Compound	oppose phencyclidine-induced social interaction deficits [1]
156 to 158	COc1ccc2cccc(C3CCN(Cc4cncc(-c5ccc(F)cc5)c4)CC3)c2n1 [Compound 3d, 8-(1-((5-(4-Fluorophenyl)pyridin-3-yl)methyl)piperidin-4-yl)-2-methoxyquinoline]	
158 to 160	O=c1ccc2cccc(C3CCN(Cc4cncc(-c5ccccc5)c4)CC3)c2[nH]1 [Compound 4c, 8-(1-((5-Phenylpyridin-3-yl)methyl)piperidin-4-yl)quinolin-2(1H)-one]	
161 to 163	O=c1ccc2cccc(C3CCN(Cc4cncc(-c5ccc(F)cc5)c4)CC3)c2[nH]1 [Compound 4d, 8-(1-((5-(4-Fluorophenyl)pyridin-3-yl)methyl)piperidin-4-yl)quinolin-2(1H)-one]	
116 to 118	O=C1CCc2cccc(C3CCN(Cc4ccc(-c5ccccc5)cc4)CC3)c2N1 [Compound 5a, 8-(1-(Biphenyl-4-ylmethyl)piperidin-4-yl)-3,4-dihydroquinolin-2(1H)-one]	
132 to 134	O=C1CCc2cccc(C3CCN(Cc4ccc(-c5ccc(F)cc5)cc4)CC3)c2N1 [Compound 5b, 8-(1-((4′-Fluorobiphenyl-4-yl)methyl)piperidin-4-yl)-3,4-dihydroquinolin-2(1H)-one]	
136 to 138	O=C1CCc2cccc(C3CCN(Cc4cncc(-c5ccc(F)cc5)c4)CC3)c2N1 [Compound 5d, 8-(1-((5-(4-Fluorophenyl)pyridin-3-yl)methyl)piperidin-4-yl)-3,4-dihydroquinolin-2(1H)-one]	
115 to 117	O=C1CCc2cccc(C3CCN(Cc4cccc(C5=CCCC5)c4)CC3)c2N1 [Compound 5e, 8-(1-(3-Cyclopentenylbenzyl)piperidin-4-yl)-3,4-dihydroquinolin-2(1H)-one]	
123 to 125	O=C1CCc2cccc(C3CCN(Cc4cncc(C5=CCCC5)c4)CC3)c2N1 [Compound 5f, 8-(1-((5-cyclopentenylpyridin-3-yl)methyl)piperidin-4-yl)-3,4-dihydroquinolin-2(1H)-one]	

The next lines start with the compound.

Compound	melting point [°C]	oppose phencyclidine-induced social interaction deficits [1]
COc1ccc2cccc(C3CCN(Cc4ccc(-c5ccccc5)cc4)CC3)c2n1 [Compound 3a, 8-(1-(Biphenyl-4-ylmethyl)piperidin-4-yl)-2-methoxyquinoline]	84 to 85	
COc1ccc2cccc(C3CCN(Cc4cncc(-c5ccccc5)c4)CC3)c2n1 [Compound 3c, 2-Methoxy-8-(1-((5-phenylpyridin-3-yl)methyl)piperidin-4-yl)quinoline]	135 to 137	
COc1ccc2cccc(C3CCN(Cc4cccc(C5=CCCC5)c4)CC3)c2n1 [Compound 3e, 8-(1-(3-Cyclopentenylbenzyl)piperidin-4-yl)-2-methoxyquinoline]	125 to 126	
O=c1ccc2cccc(C3CCN(Cc4ccc(-c5ccccc5)cc4)CC3)c2[nH]1 [Compound 4a, 8-(1-(Biphenyl-4-ylmethyl)piperidin-4-yl)quinolin-2(1H)-one]	146 to 148	
O=c1ccc2cccc(C3CCN(Cc4ccc(-c5ccc(F)cc5)cc4)CC3)c2[nH]1 [Compound 4b, 8-(1-((4′-Fluorobiphenyl-4-yl)methyl)piperidin-4-yl)quinolin-2(1H)-one]	159 to 161	
O=c1ccc2cccc(C3CCN(Cc4cccc(C5=CCCC5)c4)CC3)c2[nH]1 [Compound 4e, 8-(1-(3-Cyclopentenylbenzyl)piperidin-4-yl)quinolin-2(1H)-one]	123 to 125	
O=c1ccc2cccc(C3CCN(Cc4cncc(C5=CCCC5)c4)CC3)c2[nH]1 [Compound 4f, 8-(1-((5-Cyclopentenylpyridin-3-yl)-methyl)piperidin-4-yl)quinolin-2(1H)-one]	133 to 135	
Fc1ccc(-c2cncc(CN3CCN(c4cccc5c4OCCO5)CC3)c2)cc1 [adoprazine]		failure
O=c1[nH]c2cccc(N3CCN(Cc4cccc(-c5ccccc5)c4)CC3)c2o1 [bifeprunox]		failure
